Reference: the NIST ThermoML archive (doi:10.1016/j.jct.2016.11.009)

Details: Gas, Buoyancy - hydrostatic balance with magnetic suspension - one sinker

N#N [nitrogen]
Details | mass density [kg/m3]
304.03 K, 17990 kPa | 190.64
304.1 K, 16877 kPa | 180.004
304.11 K, 6796 kPa | 75.316
304.11 K, 12948 kPa | 140.851
304.12 K, 5782 kPa | 64.151
304.13 K, 8812 kPa | 97.213
304.14 K, 4379 kPa | 48.633
304.15 K, 2926 kPa | 32.502
304.15 K, 7820 kPa | 86.489
304.15 K, 11901 kPa | 129.994
304.15 K, 15984 kPa | 171.278
304.16 K, 10861 kPa | 119.075
304.16 K, 14927 kPa | 160.84
304.17 K, 13944 kPa | 150.964
304.23 K, 9837 kPa | 108.209
304.55 K, 2607 kPa | 28.885
304.66 K, 3534 kPa | 39.15
304.66 K, 7983 kPa | 88.017
304.69 K, 7136 kPa | 78.822
304.73 K, 16296 kPa | 173.901
304.75 K, 8937 kPa | 98.306
304.75 K, 12245 kPa | 133.207
304.77 K, 4983 kPa | 55.145
304.77 K, 14270 kPa | 153.864
304.78 K, 10988 kPa | 120.097
304.8 K, 3016 kPa | 33.394
304.82 K, 5885 kPa | 65.065
304.83 K, 8012 kPa | 88.26
304.83 K, 10043 kPa | 110.076
304.88 K, 3013 kPa | 33.353
304.88 K, 18305 kPa | 192.939
304.89 K, 6933 kPa | 76.521
305.04 K, 4986 kPa | 55.132
305.17 K, 4987 kPa | 55.12
